In one test the test system is A. aegypti L1 larvae. Description: Activity against larvae of Aedes aegypti (Example 3). The settings on record: 48 h at 27° C., read-out: EC50 (percentage of mortality, larvae). The method, then:
Eight A. aegypti L1 larvae in a total volume of 64 μL water are added to 384-well microplates containing compounds of formulae (I), (Ia) and/or (Ib) formulated in 100% DMSO. The plates are incubated for 48 h at 27° C. Individual well images are acquired and analyzed using a pipeline to quantitatively assess the amount of larvae biomass accumulating at the bottom of the well. The efficacy of a compound at a given dose is expressed as “percentage of mortality” and determined by comparison to average biomass descriptors of positive and negative control wells containing 1.0 μM Fipronil or DMSO only, respectively. Dose response assay are conducted to determine an EC50 value.

Test [1] has as its system adult R. sanguineus ticks. The test can be described thus: Contact activity against adult Rhipicephalus sanguineus (Example 5). The following applies: coated vials, 48 hours post-treatment, read-out: EC50 (contact activity, percentage mortality). The method, then: Compounds of formulae (I), (Ia) and/or (Ib) formulated in 100% DMSO are diluted in a solution containing acetone and Triton X-100 (0.02%). The resulting formulation is used to coat the inner walls of glass scintillation vials and the filter paper covering the cap of the vial. Once dried, ten adult R. sanguineus ticks are added to the vials. The vials are incubated at 24° C., 95% relative humidity, and 12 hours of light/12 hours of dark until evaluation. Ticks are visually evaluated for mortality at 48 hours post-treatment. Compound efficacy at a given dose is expressed as percentage mortality. A dose response series is implemented to determine EC50 values.

For the next test, the system named is Myzus persicae. The test can be described thus: Insecticidal test on Myzus persicae (Example 17). The test is classed as in vivo. The following applies: 144 h, 500 ppm, foliar application on Chinese cabbage, 6 days after application, read-out: control efficacy level (control rate). In outline:
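Chinese cabbage plants infested with M. persicae were given a foliar spray of compound dispersed in water at 500 ppm and 50 ppm, then kept in a greenhouse. Live aphids were counted before treatment and 6 days after. Control rate was corrected against untreated plots and graded A (100%), B (90–99%), C (80–89%), D (50–79%).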

The test system of test [2] is adult C. felis fleas. Description: Ingestion activity against adult Ctenocephalides felis, membrane feeding, alternative method (Examples 7 and 13). The settings on record: Ctenocephalides felis. In outline:
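DMSO-dissolved compounds diluted in heparinised bovine blood and fed through an artificial membrane to about 15 adult fleas per well. Mortality assessed visually at 48 h, normalised to positive and negative controls; EC50 from a dose-response series.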

Test [3] concerns adult C. felis fleas. Description: Ingestion activity against adult Ctenocephalides felis, membrane feeding, motility (Example 6). The settings on record: 48 h, bovine blood via artificial membrane, 48h post treatment, read-out: EC50 (ingestion activity, % motility reduction). The method, then:
Compounds of formulae (I), (Ia) and/or (Ib) dissolved in 100% DMSO are added to bovine blood and offered via an artificial membrane feeding system to adult C. felis fleas. The motility of fleas is then visually inspected 48h post treatment. Efficacy is expressed in % motility reduction compared to controls containing blood treated with DMSO only. A dose response series is implemented to determine EC50 values.

A further test has as its system Plutella xylostella. The test can be described thus: Insecticidal test on Plutella xylostella (Example 15). It is filed as in vivo. The settings on record: 144 h, 500 ppm, Chinese cabbage seedling dip, 6 days after dip treatment, read-out: activity level (corrected mortality rate).
The test system of test [4] is adult Ctenocephalides felis fleas. The test can be described thus: Contact activity against adult Ctenocephalides felis (Example 4). The following applies: adult C. felis, coated pipe cleaner in vial, 72 hours post-treatment, read-out: EC50 (contact activity, percentage mortality). How it is done:
Compounds of formulae (I), (Ia) and/or (Ib) dissolved in 100% DMSO are diluted in acetone to a desired concentration. The resulting formulation is used to coat the fibers of a 0.5-inch-long piece of pipe cleaner placed in a glass scintillation vial. The vial is capped with a rubber gasket and filter paper insert. After the acetone has evaporated, ten adult Ctenocephalides felis fleas are added to each vial. The vials are then incubated at 22° C., 80% relative humidity, and 12 hours of light/12 hours of dark until a visual evaluation for mortality is performed at 72 hours post-treatment. Compound efficacy at a given dose is expressed as percentage mortality and adjusted to remove background mortality observed in control vials containing DMSO only. A dose response series of treated vials is implemented to determine EC50 values.

The test system of another test is Laodelphax striatellus. The test can be described thus: Insecticidal test on Laodelphax striatellus (Example 16). It is filed as in vivo. The following applies: 192 h, 500 ppm, rice seedling dip, 3rd-instar nymphs, 8 days after inoculation, read-out: activity level (corrected mortality rate).
In the next test the test system is Spodoptera litura. Description: Insecticidal test on Spodoptera litura (Example 14). The following applies: foliar, 192 h, 500 ppm, cabbage leaf dip, 2nd-instar larvae, 8 days after inoculation, read-out: activity level (corrected mortality rate). The test is classed as in vivo. The method, then:
The compounds of formula (I), (Ia) and/or (Ib) of the present invention or salts thereof are separately dispersed in water and diluted to 500 ppm and 50 ppm. Cabbage leaves are dipped in the dispersion for about 30 seconds. After air dried, the leaves are placed in a plastic Petri dish with a diameter of 9 cm and inoculated with ten 2nd-instar larvae of Spodoptera litura, after which the dish is closed and then allowed to stand in a room at 25° C. 8 days after the inoculation, the numbers of the dead and alive insects are counted. The corrected mortality rate is calculated according to the following formula and the insecticidal activity is evaluated according to the following criteria.
[formula] [formula] • A: the corrected mortality rate is 100% • B: the corrected mortality rate is 90 to 99% • C: the corrected mortality rate is 80 to 89% • D: the corrected mortality rate is 50 to 79%

Take `CCS(=N)(=O)c1cc(-c2ccc(C3CC3)cc2)cnc1-c1nc2cc(C(F)(F)C(F)(F)F)cnc2n1C` (stereo not shown) [Compound 11]: the EC50 was below 0.04 µM in the test on A. aegypti L1 larvae; 10 to 100 µM in [1]; below 1 µM in the test with adult C. felis fleas [2] (adult C. felis, bovine blood with sodium heparin, membrane feeding, 48 hours post-treatment, read-out: EC50 (ingestion activity, percentage mortality, alternative method)); 0.816 µM in the test on adult C. felis fleas [2] (alternative method according to Example 7, mortality at 48 hours post-treatment, read-out: C. felis membrane feeding (ingestion/blood feeding) activity EC50); below 1 µM in the test with adult C. felis fleas [3]; below 10 µM in [4]. Also, the pest or weed control at 500 ppm in the test with Myzus persicae is 100%. The mortality at 500 ppm with Plutella xylostella, in the test with Laodelphax striatellus and with Spodoptera litura was 100% throughout.

These data come from US20240336615A1, “CYCLOPROPYL-(HETERO)ARYL-SUBSTITUTED ETHYL-SULFOXIME-PYRIDINE DERIVATIVES” (Boehringer Ingelheim Vetmedica GmbH, priority 2023, published 2024).
